# Source: US6737383B1, “Herbicidal oxadiazolidines” (priority 1999, dated 2004)
# Columns and labels:
# velvetleaf = assay: Test B pre/postemergence velvetleaf; format: in vivo, Abutilon theophrasti
# Outline: (§1)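 Test chemicals in a non-phytotoxic solvent mixture with surfactant were sprayed preemergence onto planted seeds and postemergence onto plants 2 to 18 cm tall (1- to 4-leaf stage). After twelve to sixteen days in a greenhouse, injury was visually rated against untreated controls from 0 (no effect) to 10 (complete control).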
# pigweed = assay: Test B pre/postemergence pigweed; format: in vivo, Amaranthus retroflexus
# Outline: as §1
# corn = assay: Test B pre/postemergence corn; format: in vivo, Zea mays
# Outline: as §1
# wheat = assay: Test B pre/postemergence wheat; format: in vivo, Triticum aestivum
# Outline: as §1
# soybean = assay: Test B pre/postemergence soybean; format: in vivo, Glycine max
# Outline: as §1
# rice = assay: Test B flood test rice; format: in vivo, Oryza sativa
# Outline: (§2)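 Read-out is a visual response score from 0 (no effect) to 10 (complete control), assigned by comparison with untreated controls. Treatment was applied at the 2-leaf stage, and plants stayed in the greenhouse for twelve to sixteen days before scoring.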
# sugar beet = assay: Test B pre/postemergence sugar beet; format: in vivo, Beta vulgaris
# Outline: as §1
# crabgrass = assay: Test B pre/postemergence crabgrass; format: in vivo, Digitaria sanguinalis
# Outline: as §1
# cocklebur = assay: Test B pre/postemergence cocklebur; format: in vivo, Xanthium strumarium
# Outline: as §1
# purple nutsedge = assay: Test B pre/postemergence purple nutsedge; format: in vivo, Cyperus rotundus
# Outline: as §1
# giant foxtail = assay: Test B pre/postemergence giant foxtail; format: in vivo, Setaria faberii
# Outline: as §1
# wild oat = assay: Test B pre/postemergence wild oat; format: in vivo, Avena fatua
# Outline: as §1
# rape = assay: Test B pre/postemergence rape; format: in vivo, Brassica napus
# Outline: as §1
# morningglory = assay: Test B pre/postemergence morningglory; format: in vivo, Ipomoea hederacea
# Outline: as §1
# bamyardgrass = assay: Test B flood test barnyardgrass; format: in vivo, Echinochloa crus-galli
# Outline: as §2
# duck salad = assay: Test B flood test duck salad; format: in vivo, Heteranthera limosa
# Outline: as §2
# [1] = Preemergence, Rate 62 g/ha, scale of 0 to 10 where 0 is no effect and 10 is complete control
# [2] = Preemergence, Rate 250 g/ha, scale of 0 to 10 where 0 is no effect and 10 is complete control
# [3] = Preemergence, Rate 500 g/ha, scale of 0 to 10 where 0 is no effect and 10 is complete control
# [4] = Rate 62 g/ha, Postemergence, scale of 0 to 10 where 0 is no effect and 10 is complete control
# [5] = Rate 125 g/ha, Preemergence, scale of 0 to 10 where 0 is no effect and 10 is complete control
# [6] = Rate 500 g/ha, Postemergence, scale 0 to 10, 0 no effect, 10 complete control
# [7] = Rate 125 g/ha, Postemergence, scale 0 to 10
# [8] = Rate 62 g/ha, headed Pre-emergence (flood test species), scale 0 to 10 (0 no effect, 10 complete control)
# [9] = Rate 125 g/ha, Pre-emergence, flood test species, scale 0 to 10 where 0 is no effect and 10 is complete control
# [10] = Rate 250 g/ha, Pre-emergence, flood-test species, scale 0 to 10, 0 is no effect, 10 is complete control
# [11] = Rate 500 g/ha, Pre-emergence, flood test species, scale 0 to 10 (0 no effect, 10 complete control)
smiles,measurement,setting,value
CCC(C)N(C(=O)n1oc(=O)n(-c2ccccc2C)c1=O)c1ccc(F)cc1 (centres unmarked) [Compound 239],Velvetleaf plant response rating,velvetleaf; [1],0
same,Velvetleaf plant response rating,velvetleaf; [2],2
same,"Plant response rating, Velvetleaf",velvetleaf; [3],5
same,Velvetleaf plant response rating,velvetleaf; [4],0
same,Velvetleaf plant response rating,velvetleaf; [5],0
same,Velvetleaf plant response rating,velvetleaf; [6],3
same,Redroot pigweed plant response rating,pigweed; [1],0
same,Redroot pigweed plant response rating,pigweed; [2],0
same,"Plant response rating, Redroot pigweed",pigweed; [3],0
same,Redroot pigweed plant response rating,pigweed; [4],0
same,Redroot pigweed plant response rating,pigweed; [5],0
same,"Plant response rating (0 to 10; 0 is no effect, 10 is complete control), Redroot pigweed","pigweed; Rate 250 g/ha, Postemergence",3
same,Redroot pigweed plant response rating,pigweed; [6],7
same,Corn plant response rating,corn; [1],0
same,Corn plant response rating,corn; [2],0
same,"Plant response rating, Corn",corn; [3],0
same,Corn plant response rating,corn; [4],0
same,Corn plant response rating,corn; [7],0
same,Corn plant response rating,corn; [5],0
same,"Plant response rating (0 to 10; 0 is no effect, 10 is complete control), Corn","corn; Rate 250 g/ha, Postemergence",0
same,Corn plant response rating,corn; [6],0
same,Wheat plant response rating,wheat; [1],0
same,Wheat plant response rating,wheat; [2],0
same,"Plant response rating, Wheat",wheat; [3],2
same,Wheat plant response rating,wheat; [4],0
same,Wheat plant response rating,wheat; [5],0
same,Wheat plant response rating,wheat; [6],0
same,Soybean plant response rating,soybean; [1],0
same,Soybean plant response rating,soybean; [2],0
same,"Plant response rating, Soybean",soybean; [3],0
same,Soybean plant response rating,soybean; [4],1
same,Soybean plant response rating,soybean; [5],0
same,Soybean plant response rating,soybean; [6],3
same,Rice plant response rating,rice; [8],0
same,Rice plant response rating,rice; [9],0
same,Rice plant response rating,rice; [10],0
same,Rice plant response rating,rice; [11],0
same,Sugarbeets plant response rating,sugar beet; [1],0
same,Sugarbeets plant response rating,sugar beet; [2],0
same,"Plant response rating, Sugarbeets",sugar beet; [3],0
same,Sugarbeets plant response rating,sugar beet; [4],0
same,Sugarbeets plant response rating,sugar beet; [5],0
same,Sugarbeets plant response rating,sugar beet; [6],0
same,Crabgrass plant response rating,crabgrass; [2],10
same,"Plant response rating, Crabgrass",crabgrass; [3],10
same,Crabgrass plant response rating,crabgrass; [4],0
same,Crabgrass plant response rating,crabgrass; [5],7
same,"Plant response rating (0 to 10; 0 is no effect, 10 is complete control), Crabgrass","crabgrass; Rate 250 g/ha, Postemergence",2
same,Crabgrass plant response rating,crabgrass; [6],6
same,Cocklebur plant response rating,cocklebur; [1],0
same,Cocklebur plant response rating,cocklebur; [2],0
same,"Plant response rating, Cocklebur",cocklebur; [3],0
same,Cocklebur plant response rating,cocklebur; [4],0
same,Cocklebur plant response rating,cocklebur; [7],1
same,Cocklebur plant response rating,cocklebur; [5],0
same,"Plant response rating (0 to 10; 0 is no effect, 10 is complete control), Cocklebur","cocklebur; Rate 250 g/ha, Postemergence",1
same,Cocklebur plant response rating,cocklebur; [6],1
same,Nutsedge plant response rating,purple nutsedge; [1],0
same,"Plant response rating, Nutsedge",purple nutsedge; [3],0
same,Nutsedge plant response rating,purple nutsedge; [4],0
same,Nutsedge plant response rating,purple nutsedge; [5],0
same,"Plant response rating (0 to 10; 0 is no effect, 10 is complete control), Nutsedge","purple nutsedge; Rate 250 g/ha, Postemergence",0
same,Nutsedge plant response rating,purple nutsedge; [6],0
same,Giant foxtail plant response rating,giant foxtail; [1],4
same,Giant foxtail plant response rating,giant foxtail; [2],10
same,"Plant response rating, Giant foxtail",giant foxtail; [3],10
same,Giant foxtail plant response rating,giant foxtail; [4],0
same,Giant foxtail plant response rating,giant foxtail; [5],10
same,"Plant response rating (0 to 10; 0 is no effect, 10 is complete control), Giant foxtail","giant foxtail; Rate 250 g/ha, Postemergence",1
same,Giant foxtail plant response rating,giant foxtail; [6],6
same,Wild oats plant response rating,wild oat; [1],0
same,Wild oats plant response rating,wild oat; [2],3
same,"Plant response rating, Wild oats",wild oat; [3],3
same,Wild oats plant response rating,wild oat; [4],0
same,Wild oats plant response rating,wild oat; [5],0
same,Wild oats plant response rating,wild oat; [6],0
same,Rape plant response rating,rape; [1],0
same,Rape plant response rating,rape; [2],0
same,"Plant response rating, Rape",rape; [3],0
same,Rape plant response rating,rape; [4],0
same,Rape plant response rating,rape; [5],0
same,"Plant response rating (0 to 10; 0 is no effect, 10 is complete control), Rape","rape; Rate 250 g/ha, Postemergence",0
same,Rape plant response rating,rape; [6],0
same,Morningglory plant response rating,morningglory; [1],0
same,Morningglory plant response rating,morningglory; [2],0
same,"Plant response rating, Morningglory",morningglory; [3],0
same,Morningglory plant response rating,morningglory; [4],1
same,Morningglory plant response rating,morningglory; [5],0
same,"Plant response rating (0 to 10; 0 is no effect, 10 is complete control), Morningglory","morningglory; Rate 250 g/ha, Postemergence",3
same,Morningglory plant response rating,morningglory; [6],9
same,Barnyardgrass plant response rating,bamyardgrass; [8],0
same,Barnyardgrass plant response rating,bamyardgrass; [9],0
same,Barnyardgrass plant response rating,bamyardgrass; [10],0
same,Barnyardgrass plant response rating,bamyardgrass; [11],0
same,Ducksalad plant response rating,duck salad; [8],0
same,Ducksalad plant response rating,duck salad; [9],0
same,Ducksalad plant response rating,duck salad; [10],0
same,Ducksalad plant response rating,duck salad; [11],0
